Experiments:
Assay in all cases: relative viability (nuclei count vs DMSO), 5 days (fraction); higher = more cells survive
[1] = compound: C1CC2=C(C1)C=C(C=C2)OC3=NC(=C4C(=N3)N(C=N4)CC5=CC=C(C=C5)C6=CC=CC=C6)N[C@@H](CC7=CC=CC=C7)CO [QS11] + Cc1cc(Nc2cc(N3CCN(C)CC3)nc(Sc3ccc(NC(=O)C4CC4)cc3)n2)n[nH]1 [Tozasertib] (partner 0.1 µM)
Summary of the method: (§1)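 One day after seeding in 1536-well plates, lung cancer cell lines were dosed by pin tool. Dosing was either single-drug or a fixed anchor-drug dose plus five library-drug doses (not always all listed) in √10 steps. After 5 days, nuclei were stained in one fix-and-stain step and counted on 4× images, and relative viability is the nuclei count of treated wells over that of vehicle wells, given as the median of duplicate plates.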

[2] = compound: CC1=C(C=C(C=C1)NC(=O)C2=CC(=CC=C2)C(C)(C)C#N)NC3=CC4=C(C=C3)N=CN(C4=O)C [AZ628] + CC(=O)Nc1cccc(-n2c(=O)n(C3CC3)c(=O)c3c(Nc4ccc(I)cc4F)n(C)c(=O)c(C)c32)c1 [Trametinib] (partner 0.02 µM)
Summary of the method: as §1

[3] = compound: CC1=C(C=C(C=C1)NC(=O)C2=CC(=CC=C2)C(C)(C)C#N)NC3=CC4=C(C=C3)N=CN(C4=O)C [AZ628] + Nc1nc2[nH]cc(CCc3ccc(C(=O)N[C@@H](CCC(=O)O)C(=O)O)cc3)c2c(=O)[nH]1 [Pemetrexed] (partner 0.2 µM)
Summary of the method: as §1

[4] = compound: C[As](C)SC[C@H](NC(=O)CC[C@H](N)C(=O)O)C(=O)NCC(=O)O [Darinaparsin] + Cc1nc(Nc2ncc(C(=O)Nc3c(C)cccc3Cl)s2)cc(N2CCN(CCO)CC2)n1 [Dasatinib] (partner 0.075 µM)
Summary of the method: as §1

| Cell Line | relative viability ([1]; first compound 0.08 µM) | relative viability ([1]; first compound 0.253 µM) | relative viability ([1]; first compound 0.8 µM) | relative viability ([1]; first compound 2.53 µM) | relative viability ([1]; first compound 8 µM) | relative viability ([2]; first compound 0.08 µM) | relative viability ([2]; first compound 0.253 µM) | relative viability ([2]; first compound 0.8 µM) | relative viability ([2]; first compound 2.53 µM) | relative viability ([2]; first compound 8 µM) | relative viability ([3]; first compound 0.08 µM) | relative viability ([3]; first compound 0.253 µM) | relative viability ([3]; first compound 0.8 µM) | relative viability ([3]; first compound 2.53 µM) | relative viability ([3]; first compound 8 µM) | relative viability ([4]; first compound 0.08 µM) | relative viability ([4]; first compound 0.8 µM) | relative viability ([4]; first compound 2.53 µM) | relative viability ([4]; first compound 8 µM) |
| --- | --- | --- | --- | --- | --- | --- | --- | --- | --- | --- | --- | --- | --- | --- | --- | --- | --- | --- | --- |
| NCI-H2009 | 0.756 | 0.789 | 0.595 | 0.58 | 0.434 | 0.208 | 0.177 | 0.198 | 0.179 | 0.194 | 1.1 | 1.09 | 1.05 | 1 | 0.464 | 0.307 | 0.32 | 0.266 | 0.233 |
| SK-LU-1 | 0.293 | 0.323 | 0.352 | 0.312 | 0.278 | 0.325 | 0.323 | 0.257 | 0.248 | 0.248 | 0.603 | 0.973 | 0.885 | 1.01 | 0.66 | 0.173 | 0.107 | 0.173 | 0.183 |
| RERF-LC-KJ | 0.521 | 0.429 | 0.42 | 0.274 | 0.274 | 0.762 | 0.719 | 0.824 | 0.835 | 0.736 | 0.475 | 0.474 | 0.464 | 0.508 | 0.467 | 0.916 | 0.87 | 0.621 | 0.758 |
| NCI-H322M | 0.479 | 0.479 | 0.45 | 0.545 | 0.64 | 0.473 | 0.511 | 0.489 | 0.536 | 0.617 | 0.726 | 0.664 | 0.604 | 0.642 | 0.558 | 0.269 | 0.233 | 0.251 | 0.257 |
| LK-2 | 0.177 | 0.194 | 0.181 | 0.173 | 0.19 | 0.332 | 0.468 | 0.251 | 0.27 | 0.301 | 0.273 | 0.221 | 0.263 | 0.343 | 0.15 | 0.201 | – | 0.301 | 0.274 |
| SK-MES-1 | 1.04 | 0.906 | 0.833 | 0.905 | 0.745 | 0.32 | 0.318 | 0.308 | 0.262 | 0.369 | 0.867 | 0.915 | 0.844 | 0.91 | 0.59 | 0.284 | 0.258 | 0.344 | 0.345 |
| NCI-H2228 | 0.195 | 0.241 | 0.309 | 0.296 | 0.289 | 0.34 | 0.316 | 0.263 | 0.129 | 0.12 | 0.348 | 0.296 | 0.351 | 0.355 | 0.234 | 0.71 | 0.606 | 0.447 | 0.686 |
| NCI-H1792 | – | – | – | – | – | 0.333 | 0.247 | 0.117 | 0.195 | 0.052 | 1 | 0.677 | 0.457 | 0.583 | 0.368 | 1.28 | 0.849 | 0.804 | 0.957 |
| LOU-NH91 | 0.67 | 0.647 | 0.629 | 0.597 | 0.572 | 0.795 | 0.787 | 0.713 | 0.726 | 0.668 | 0.345 | 0.384 | 0.332 | 0.36 | 0.339 | 0.632 | 0.512 | 0.49 | 0.622 |
| SW 900 | 0.573 | 0.479 | 0.521 | 0.408 | 0.296 | 0.506 | 0.663 | 0.568 | 0.555 | 0.309 | 0.495 | 0.489 | 0.471 | 0.461 | 0.451 | 0.512 | 0.454 | 0.654 | 0.514 |
| LU99A | 0.269 | 0.285 | 0.273 | 0.296 | 0.245 | 0.296 | 0.277 | 0.245 | 0.244 | 0.288 | 0.191 | 0.186 | 0.215 | 0.215 | 0.175 | 0.627 | 0.59 | 0.473 | 0.519 |
| NCI-H661 | 0.36 | 0.375 | 0.299 | 0.353 | 0.343 | 0.509 | 0.426 | 0.413 | 0.377 | 0.535 | 0.95 | 0.979 | 0.867 | 0.848 | 0.822 | 0.981 | 0.772 | 0.89 | 0.948 |
| NCI-H3122 | 0.45 | 0.496 | – | 0.374 | 0.201 | 0.157 | 0.143 | 0.159 | 0.138 | 0.132 | 0.185 | 0.166 | 0.161 | 0.159 | 0.151 | 0.998 | 0.73 | 0.71 | 0.968 |
| LC-2-ad | 0.445 | 0.471 | 0.476 | 0.507 | 0.439 | 0.731 | 0.669 | 0.529 | 0.601 | 0.427 | 0.3 | 0.29 | 0.262 | 0.274 | 0.266 | 0.683 | 0.628 | 0.454 | 0.466 |
| HCC-78 | 0.404 | 0.57 | 0.401 | 0.462 | 0.449 | 0.613 | 0.424 | 0.377 | 0.375 | 0.46 | 0.95 | 0.905 | 0.892 | 0.89 | 0.915 | 0.382 | 0.384 | 0.375 | 0.386 |
| SW 1573 | 0.235 | 0.138 | 0.186 | 0.212 | 0.197 | 0.443 | 0.346 | 0.334 | 0.3 | 0.329 | 0.806 | 0.79 | 0.675 | 0.765 | 0.461 | 0.498 | 0.625 | 0.299 | 0.656 |
| NCI-H358 | 0.099 | 0.106 | 0.108 | 0.101 | 0.109 | 0.113 | 0.112 | 0.104 | 0.102 | 0.134 | 0.172 | 0.159 | 0.152 | 0.142 | 0.142 | 0.135 | 0.157 | 0.17 | 0.162 |

Source: the supplement of paper PMC10307832
